Laboratory results taken from patent US9517254B2, “Treatment regimens” (S1 Biopharma, Inc., priority 2012, dated 2016).
Several values for one entry are separate records, joined by “and”; a condition that tells them apart may be missing. Identical values can stand only once. Numbered stars: 1 amine (or outer) side, 2 acyl side, 3 side chain; on linkers, the order of the positions; unused ones are H or OH. Bridge positions count the residues as written; N and C are the ends. Square brackets hold non-standard residues; d marks the D form. Peptide text beside a SMILES is read from it. X1 = O=C(c1ccc(O)cc1)[C@H](N[*:1])C(=O)[*:2]

Assays:
men = details: 24 IU intranasal, placebo-controlled; cited from earlier work
patients = details: transnasal, three patients; cited from earlier work
healthy volunteer [1] = test: Patient's global impression of improvement (PGI) for sexual events (arousal, orgasm, overall satisfaction), same single-volunteer study; type: in vivo, human
healthy volunteer [2] = test: Daily sexual desire score (0-2) in a single volunteer given four sequential 4-week treatments; type: in vivo, human; details: for sexual desire response: 4 weeks of treatment; for sexual desire, comparison of bupropion alone with trazodone alone: 4 weeks each
Protocol: A healthy volunteer in a stable marital relationship for two years with no current sexual disorders, exposed themself sequentially to four treatments, each for 4 weeks: (1) Treatment B: Instant-release (IR) Bupropion (Bup) 150 mg in the morning and 100 mg in the evening; (2) Treatment T: IR trazodone (Trz) 50 mg t.i.d.; (3) Treatment Llow, IR Trz 25 mg b.i.d. plus IR Bup 150 mg in the morning and 100 mg in the evening; and (4) Treatment Lhigh, IR Trz 50 mg t.i.d. plus IR Bup 75 mg t.i.d. A washout of 1-4 weeks occurred between each treatment.
The test used for the desire score was a two-tailed paired t test, using all scores within a given treatment as repeated measures. […] Both were from the website graphpad.com.* *http://graphpad.com/quickcalcs/chisquared1.cfm

[3] = wks 1-2, arousal, orgasm, overall satisfaction

**Q.** Which “arousal or orgasm on the Acute Sexual Experiences Scale (ASES)” value (men) does the source give for `CC[C@H](C)[C@@H]1NC(=O)[C@H](C(=O)c2ccc(O)cc2)NC(=O)[C@@H](N)CSSC[C@@H](C(=O)N2CCC[C@H]2C(=O)N[C@@H](CC(C)C)C(=O)NCC(N)=O)NC(=O)[C@H](CC(N)=O)NC(=O)[C@H](CCC(N)=O)NC1=O` [OT, 1-({(4R,7S,10S,13S,16S,19R)-19-amino-7-(2-amino-2-oxoethyl)-10-(3-amino-3-oxopropyl)-16-(4-hydroxybenzoyl)-13-[(1S)-1-methylpropyl]-6,9,12,15,18-pentaoxo-1,2-dithia-5,8,11,14,17-pentaazacycloicosan-4-yl}carbonyl)-L-prolyl-L-leucylglycinamide] (H-C[X1]IQNCPLG-NH2; disulfide 1-6) here?
**A.** Its value is “failed to increase arousal or orgasm”.

**Q.** What about the “effect on sexual function in case reports” value (patients) of the same molecule?
**A.** Its value is “pro-sexual effects”.

**Q.** For `O=c1n(CCCN2CCN(c3cccc(Cl)c3)CC2)nc2ccccn12` [Trz, 2-{3-[4-(3-chlorophenyl)piperazin-1-yl]propyl}[1,2,4]triazolo[4,3-a]pyridin-3(2H)-one], which “PGI Improved for Sexual Events, Sum of 3 domains, % improved” value (“PGI Improved … % improved” for short) (healthy volunteer [1]; total, all four weeks) is on record?
**A.** Its value is 20%.

**Q.** And the “PGI Improved for Sexual Events, Sum of 3 domains, n/N” value (“PGI Improved for Sexual Events … n/N” below) (healthy volunteer [1]; total, all four weeks)?
**A.** Its value is 6/30.

**Q.** And the “PGI Improved … % improved” value (healthy volunteer [1]; wks 1-2)?
**A.** The value was 25%.

**Q.** And the “PGI Improved for Sexual Events … n/N” value (healthy volunteer [1]; [3])?
**A.** The value was 3/12.

**Q.** What about the “PGI Improved … % improved” value (healthy volunteer [1]; wks 3-4) of the same molecule?
**A.** The value was 17%.

**Q.** What about the “PGI Improved for Sexual Events … n/N” value (healthy volunteer [1]; wks 3-4) of the same molecule?
**A.** The value was 3/18.

**Q.** And the “sexual desire response” value (healthy volunteer [2])?
**A.** The value was “low”.

**Q.** And the “0-2 Daily Desire Score, % of max.” value (healthy volunteer [2]; total, all four weeks)?
**A.** Its value is 4%.

**Q.** What about the “0-2 Daily Desire Score, mean ± SD” value (healthy volunteer [2]; total, all four weeks) of the same molecule?
**A.** Its value is 0.07 ± 0.38.

**Q.** What about the “0-2 Daily Desire Score, total” value (healthy volunteer [2]; total, all four weeks) of the same molecule?
**A.** The value was 2.

**Q.** And the “0-2 Daily Desire Score, mean ± SD” value (healthy volunteer [2]; wks 1-2)?
**A.** The value was 0.14 ± 0.53.

**Q.** What about the “0-2 Daily Desire Score, % of max.” value (healthy volunteer [2]; wks 1-2, max. = 28) of the same molecule?
**A.** The value was 7%.

**Q.** What about the “0-2 Daily Desire Score, total” value (healthy volunteer [2]; wks 1-2, max. = 28) of the same molecule?
**A.** Its value is 2.

**Q.** And the “0-2 Daily Desire Score, % of max.” value (healthy volunteer [2]; wks 3-4, max. = 28)?
**A.** The value was 0, 0%.

**Q.** And the “0-2 Daily Desire Score, total” value (healthy volunteer [2]; wks 3-4, max. = 28)?
**A.** The value was 0, 0%.

**Q.** Which “arousal, % of sexual events improved” value (healthy volunteer [1]; third and fourth weeks of use) does the source give for `CC(NC(C)(C)C)C(=O)c1cccc(Cl)c1` (racemic) [Bup, (±)-2-(tert-Butylamino)-1-(3-chlorophenyl)propan-1-one] here?
**A.** Its value is 0%.

**Q.** And the “arousal, % of sexual events improved” value (healthy volunteer [1]; total for all four weeks)?
**A.** The value was 20%.

**Q.** What about the “PGI Improved … % improved” value (healthy volunteer [1]; total, all four weeks) of the same molecule?
**A.** The value was 20%.

**Q.** And the “PGI Improved for Sexual Events … n/N” value (healthy volunteer [1]; total, all four weeks)?
**A.** The value was 6/30.

**Q.** What about the “arousal, % of sexual events improved” value (healthy volunteer [1]; weeks 1-2) of the same molecule?
**A.** Its value is 40%.

**Q.** What about the “arousal, sexual events improved, n/N” value (healthy volunteer [1]; weeks 1-2) of the same molecule?
**A.** Its value is “⅖”.

**Q.** And the “PGI Improved … % improved” value (healthy volunteer [1]; wks 1-2)?
**A.** Its value is 27%.

**Q.** And the “PGI Improved for Sexual Events … n/N” value (healthy volunteer [1]; [3])?
**A.** Its value is 4/15.

**Q.** What about the “PGI Improved … % improved” value (healthy volunteer [1]; wks 3-4) of the same molecule?
**A.** Its value is 13%.

**Q.** What about the “PGI Improved for Sexual Events … n/N” value (healthy volunteer [1]; wks 3-4) of the same molecule?
**A.** Its value is 2/15.

**Q.** And the “PGI Improved … % improved” value (healthy volunteer [1]; wks 3-4, listed as B)?
**A.** The value was 20% and 13%.

**Q.** And the “sexual desire, comparison of bupropion alone with trazodone alone” value (healthy volunteer [2]; listed as B)?
**A.** Its value is “markedly superior to T”.

**Q.** And the “sexual desire, comparison of bupropion alone with trazodone alone” value (healthy volunteer [2]; listed as Treatment B)?
**A.** The value was “superior to Treatment T”.

**Q.** What about the “sexual desire response” value (healthy volunteer [2]) of the same molecule?
**A.** Its value is “intermediate”.

**Q.** What about the “0-2 Daily Desire Score, mean ± SD” value (healthy volunteer [2]; total, all four weeks) of the same molecule?
**A.** Its value is 0.82 ± 0.55.

**Q.** What about the “0-2 Daily Desire Score, mean ± SD” value (healthy volunteer [2]; wks 1-2) of the same molecule?
**A.** The value was 0.65 ± 0.74.

**Q.** And the “0-2 Daily Desire Score, % of max.” value (healthy volunteer [2]; wks 1-2, max. = 28)?
**A.** Its value is 32%.

**Q.** What about the “0-2 Daily Desire Score, total” value (healthy volunteer [2]; wks 1-2, max. = 28) of the same molecule?
**A.** Its value is 9.

**Q.** What about the “0-2 Daily Desire Score, % of max.” value (healthy volunteer [2]; wks 3-4, max. = 28) of the same molecule?
**A.** Its value is 50%.

**Q.** What about the “0-2 Daily Desire Score, total” value (healthy volunteer [2]; wks 3-4, max. = 28) of the same molecule?
**A.** The value was 14.
